Patent publication US4874851A, “3',4'-dinitrogen substituted epipodophyllotoxin glucoside derivatives” (Bristol-Meyers Company, priority 1987, dated 1989)
≈ marks a conversion by molar mass, not a printed value.

Columns and labels:
[1] = tested on: small cell lung cancer, non-lymphocytic leukemia, and non-seminomatous testicular cancer; conditions: AMA Drug Evaluation, 5th Edition, 1983; cited from earlier work
P388 leukemia = assay: Antitumor activity against transplantable murine P388 leukemia in mice (i.p. implant); format: in vivo, murine (female CDF1 mice); conditions: i.p. on days 5 and 8; 10^6 ascites cells i.p.; maximum effect over doses; >=125 significant
Procedure: (§1) Representative compounds of the present invention were evaluated for their antitumor activity in in vitro cytotoxicity assay against human and murine tumor cell lines, as well as against transplantable murine P388 leukemia.
Female CDF1 mice were implanted intraperitoneally with a tumor inoculum of 10^6 ascites cells of P388 murine leukemia and treated with various doses of a test compound; four mice were used for each dose level and ten were used as saline-treated control. The compounds were administered by intraperitoneal injection on days 5 and 8 (day 1 being the day of tumor implantation). Antitumor activity was expressed as % T/C which is the ratio of the median survival time (MST) of drug-treated group to the MST of saline-treated control group. A compound showing a % T/C value of 125 or greater is generally considered to have significant antitumor activity in the P388 test. The experiment lasted 31 days at the end of which time the number of survivors was noted. Table I presents the results of the above-described evaluation; only the maximum % T/C and the dose showing the maximum effect are reported.

B16-F10 murine melanoma = assay: In vitro cytotoxicity assay, B16-F10 murine melanoma; format: cell-based; conditions: four-fold serial dilution, <500 μg/ml positive, two lines per compound; for IC50: Mus musculus, B16-F10, inhibit cell growth by 50%, read-out: IC50 B-16-F10; for IC50 B-16-F10: inhibit cell growth by 50%
Procedure: as §1
(§2) The in vitro cytotoxicity assay involved growing various mammalian tumor cells, including human tumor cells, on microtitre plates employing established tissue culture methods. The concentration of each compound required to inhibit cell growth by 50% (IC50) was then determined by a four-fold serial dilution technique. The validity of the method has been supported by a report published in the "Proceedings of the American Association for Cancer Research", 1984, 25: 1891 (Abst. No. 328). Tumor cells of the following types were employed for each compound tested: B16-F10 murine melanoma; KB human nasopharyngyl; Moser human colon; SW900 human lung; M109 murine lung; and three human colon tumor cell lines namely HCT-116, HCT-VM, and HCT-VP, the latter two being resistant to teniposide (VM) and etoposide (VP), respectively. IC50 values less than 500 μg/ml are a positive indicator of antitumor activity. Table II presents IC50 values of various compounds of the present invention against the aforementioned cell lines.

HCT-116 = assay: In vitro cytotoxicity assay, HCT-116 human colon; format: cell-based; conditions: four-fold serial dilution, two lines per compound; for IC50: Homo sapiens, HCT-116, inhibit cell growth by 50%; for IC50 HCT-116: inhibit cell growth by 50%
Procedure: as §1, §2

Moser human colon = assay: In vitro cytotoxicity assay, Moser human colon; format: cell-based; conditions: inhibit cell growth by 50%, four-fold serial dilution, two lines per compound; for IC50: Homo sapiens
Procedure: as §1, §2

SW900 human lung = assay: In vitro cytotoxicity assay, SW900 human lung; format: cell-based; conditions: four-fold serial dilution, two lines per compound; for IC50: Homo sapiens, SW900, inhibit cell growth by 50%
Procedure: as §1, §2

M109 murine lung = assay: In vitro cytotoxicity assay, M109 murine lung; format: cell-based; conditions: four-fold serial dilution, two lines per compound; for IC50: Mus musculus, M109, inhibit cell growth by 50%; for IC50 M109: inhibit cell growth by 50%
Procedure: as §1, §2

KB human nasopharyngyl = assay: In vitro cytotoxicity assay, KB human nasopharyngyl; format: cell-based; conditions: inhibit cell growth by 50%, four-fold serial dilution, two lines per compound
Procedure: as §1, §2

HCT/VM46 = assay: In vitro cytotoxicity assay, HCT/VM46 human colon, resistant to teniposide; format: cell-based; conditions: inhibit cell growth by 50%, two lines per compound
Procedure: as §1, §2

HCT/VP35 = assay: In vitro cytotoxicity assay, HCT/VP35 human colon, resistant to etoposide; format: cell-based; conditions: inhibit cell growth by 50%, two lines per compound
Procedure: as §1, §2

SMILES	activity in the treatment of a variety of cancers (in words) [1]	Max. % T/C (median survival time treated / saline control) (P388 leukemia)	IC50 (B16-F10 murine melanoma)	IC50 B-16-F10 (B16-F10 murine melanoma)	IC50 (HCT-116)	IC50 (Moser human colon)	IC50 MOSER (Moser human colon)	IC50 (SW900 human lung)	IC50 HCT-116 (HCT-116)	IC50 (M109 murine lung)	IC50 M109 (M109 murine lung)	IC50 (KB human nasopharyngyl; Homo sapiens)	IC50 KB (KB human nasopharyngyl)	IC50 (HCT/VM46; Homo sapiens)	IC50 HCT/VM46 (HCT/VM46)	IC50 (HCT/VP35; Homo sapiens, HCT/VP35, etoposide-resistant)	IC50 HCT/VP35 (HCT/VP35; etoposide-resistant)	IC50 SW900 (SW900 human lung; inhibit cell growth by 50%)
COc1cc([C@@H]2c3cc4c(cc3[C@@H](O[C@@H]3O[C@@H]5CO[C@@H](c6cccs6)O[C@H]5[C@H](O)[C@H]3O)[C@H]3COC(=O)[C@H]23)OCO4)cc(OC)c1O [teniposide]	active in the treatment of a variety of cancers																	
COc1cc(C2c3cc4c(cc3C(OC3OC5COC(C)OC5C(O)C3O)C3COC(=O)C23)OCO4)cc(NC(C)=O)c1NC(C)=O (stereo not shown) [Example 4, 4'-Dehydroxy-3'-demethoxy-3',4'-bis-acetylamino etoposide]		105%	116 µg/mL (≈ 177 µM)	98 µg/mL (≈ 149 µM)	> 250 µg/mL	106 µg/mL (≈ 161 µM)	123 µg/mL (≈ 187 µM)	> 250 µg/mL										
COc1cc(C2c3cc4c(cc3C(OC3OC5COC(C)OC5C(O)C3O)C3COC(=O)C23)OCO4)cc2nc(C)c(C)nc12 (stereo not shown) [Example 20, 4'-Dehydroxy-3'-demethoxy-etoposide 3',4'-(2,3-dimethylpyrazine)]		110%	118 µg/mL (≈ 190 µM)	113 µg/mL (≈ 181 µM)	103 µg/mL (≈ 165 µM)	113 µg/mL (≈ 181 µM)	90 µg/mL (≈ 145 µM)	> 250 µg/mL	99 µg/mL (≈ 159 µM)									
COc1cc(C2c3cc4c(cc3C(OC3OC5COC(C)OC5C(O)C3O)C3COC(=O)C23)OCO4)cc2nc[nH]c12 (stereo not shown) [Example 18, 4'-Dehydroxy-3'-demethoxy etoposide 3',4'-imidazole]		115%	82 µg/mL (≈ 141 µM)	55 µg/mL (≈ 94.4 µM)	> 250 µg/mL	116 µg/mL (≈ 199 µM)	115 µg/mL (≈ 197 µM)	> 250 µg/mL										
COc1cc(C2c3cc4c(cc3C(OC3OC5COC(C)OC5C(O)C3O)C3COC(=O)C23)OCO4)cc(N)c1N (stereo not shown) [Example 3, 4'-Dehydroxy-3'-demethoxy-3',4'-diamino etoposide]		216%			108 µg/mL (≈ 189 µM)	87 µg/mL (≈ 152 µM)	91 µg/mL (≈ 159 µM)		102 µg/mL (≈ 178 µM)	104 µg/mL (≈ 182 µM)	87 µg/mL (≈ 152 µM)							
COc1cc([C@@H]2c3cc4c(cc3[C@@H](O[C@@H]3O[C@@H]5CO[C@@H](C)O[C@H]5[C@H](O)[C@H]3O)[C@H]3COC(=O)[C@H]23)OCO4)cc(OC)c1O [etoposide]	active in the treatment of a variety of cancers																	
COC1=CC(C2c3cc4c(cc3C(OC3OC5COC(C)OC5C(O)C3O)C3COC(=O)C23)OCO4)=CC(=NOCc2ccccc2)C1=NOCc1ccccc1 (stereo not shown) [Example 1, 4'-Dehydroxy-3'-demethoxy-etoposide 3',4'-bis-O-benzyloxime]		126%	14.5 µg/mL (≈ 18.5 µM)	14.1 µg/mL (≈ 18 µM)						83 µg/mL (≈ 106 µM)	59 µg/mL (≈ 75.4 µM)	37 µg/mL (≈ 47.3 µM)	28 µg/mL (≈ 35.8 µM)					
CCOP1(=S)Nc2cc(C3c4cc5c(cc4C(OC4OC6COC(C)OC6C(O)C4O)C4COC(=O)C34)OCO5)cc(OC)c2N1 (stereo not shown) [Example 21, 4'-Dehydroxy-3'-demethoxy etoposide 3',4'-ethylthiophosphamide]		145%	23 µg/mL (≈ 33.9 µM)	17.9 µg/mL (≈ 26.4 µM)	20 µg/mL (≈ 29.5 µM)	21 µg/mL (≈ 30.9 µM)	23 µg/mL (≈ 33.9 µM)	> 250 µg/mL	26 µg/mL (≈ 38.3 µM)									
COc1cc(C2c3cc4c(cc3C(OC3OC5COC(C)OC5C(O)C3O)C3COC(=O)C23)OCO4)cc(N=Cc2ccncc2)c1N=Cc1ccncc1 (stereo not shown) [Example 10, 4'-Dehydroxy-3'-demethoxy-3',4'-bis-(4-pyridylmethylene) amino Etoposide]		145%	59 µg/mL (≈ 78.6 µM)	100 µg/mL (≈ 133 µM)	81 µg/mL (≈ 108 µM)			> 250 µg/mL	103 µg/mL (≈ 137 µM)									
CON=C1C=C(C2c3cc4c(cc3C(OC3OC5COC(C)OC5C(O)C3O)C3COC(=O)C23)OCO4)C=C(OC)C1=NOC (stereo not shown) [Example 2, 4'-Dehydroxy-3'-demethoxy-etoposide 3',4'-bis-O-methyloxime]		175%	29 µg/mL (≈ 46 µM)	51 µg/mL (≈ 80.9 µM)	84 µg/mL (≈ 133 µM)	54 µg/mL (≈ 85.6 µM)	40 µg/mL (≈ 63.4 µM)	> 250 µg/mL	91 µg/mL (≈ 144 µM)									
COc1cc(C2c3cc4c(cc3C(OC3OC5COC(C)OC5C(O)C3O)C3COC(=O)C23)OCO4)cc2nn[nH]c12 (stereo not shown) [Example 17, 4'-Dehydroxy-3'-demethoxy-etoposide 3',4'-triazole]		125%	45 µg/mL (≈ 77.1 µM)	55 µg/mL (≈ 94.3 µM)	53 µg/mL (≈ 90.8 µM)	91 µg/mL (≈ 156 µM)	88 µg/mL (≈ 151 µM)	78 µg/mL (≈ 134 µM)	62 µg/mL (≈ 106 µM)					64 µg/mL (≈ 110 µM)	88 µg/mL (≈ 151 µM)	84 µg/mL (≈ 144 µM)	82 µg/mL (≈ 141 µM)	89 µg/mL (≈ 153 µM)
